Here are results for four compounds from publication PMC10523748, “Cytotoxicity, acute and sub-chronic toxicities of the leaves of Bauhinia thonningii (Schumach.) Milne-Redh. (Caesalpiniaceae)” (BMC Complementary Medicine and Therapies, 2023).

Molecules are shown by their SMILES. Read-outs that look alike come from different tables or passages of the source.

The test system of data set [1] is HCT116 p53^+/+ colon adenocarcinoma cells. As to the kind of experiment: RRA cytotoxicity, HCT116 p53^+/+. The following applies: Homo sapiens, HCT-116, 72 h.
In a further data set the test system is U87MG.ΔEGFR cells. As to the kind of experiment: RRA cytotoxicity, U87MG.ΔEGFR. Particulars: for IC50: Homo sapiens, 72 h.
The subject of another data set is normal AML12 hepatocytes. As to the kind of experiment: RRA cytotoxicity, normal AML12 hepatocytes. The following applies: Mus musculus, AML12, 72 h.
Data set [2] relates to MDA-MB-231-pcDNA breast adenocarcinoma cells. The data set is described as follows: RRA cytotoxicity, MDA-MB-231-pcDNA. Particulars: Homo sapiens, 72 h.
The subject of data set [3] is 9 tested cancer cell lines. As to the kind of experiment: RRA cytotoxicity, whole panel of cancer cell lines. Particulars: 9 cancer cell lines, up to 50 µM.
In a further data set the test system is HCT116 p53^−/− cells. The data set is described as follows: RRA cytotoxicity, HCT116 p53^−/−. The following applies: for IC50: Homo sapiens, HCT-116, 72 h.
For a further data set, the system named is CCRF-CEM leukemia cells. As to the kind of experiment: Resazurin reduction assay (RRA) cytotoxicity, CCRF-CEM. Particulars: 72 h.
For data set [4], the system named is CCRF-CEM cells. The arrangement: method as in PMID 12064912. The following applies: cited from earlier work.
A further data set concerns U87MG glioblastoma cells. As to the kind of experiment: RRA cytotoxicity, U87MG. Particulars: Homo sapiens, U-87 MG, 72 h.
Data set [5] concerns HepG2 hepatocarcinoma cells. The data set is described as follows: RRA cytotoxicity, HepG2. Particulars: Homo sapiens, HepG2, 72 h.
Another data set has as its system CEM/ADR5000 cells. Set-up: method as in PMID 12064912. The following applies: cited from earlier work.
For the next data set, the system named is MDA-MB-231-BCRP cells. The data set is described as follows: RRA cytotoxicity, MDA-MB-231-BCRP. The following applies: for IC50: Homo sapiens, MDA-MB-231/BCRP, 72 h; for Degree of resistance: IC50 MDA-MB-231-BCRP versus MDA-MB-231-pcDNA.
Data set [6] relates to CEM/ADR5000 leukemia cells (P-gp-overexpressing). The data set is described as follows: RRA cytotoxicity, CEM/ADR5000. Particulars: for IC50: Homo sapiens, ADR5000, 72 h; for Degree of resistance: IC50 CEM/ADR5000 versus CCRF-CEM.
In data set [7] the test system is caspase 9 in CCRF-CEM cells. The data set is described as follows: Caspase-Glo 9 assay. Particulars: 6 h, versus untreated cells. Type of data set: cell-based, human. As for the experimental part:
(§1) The amount of the treated cells was 1.5 × 10^4 cells for the caspase 3/7 assay or 3 × 10^4 cells for the caspase 8 and caspase 9 assays in 100 µL. The treated cells were then incubated for 6 h under the standard cell culture conditions as described above. Subsequently, the activity of caspases was detected by a spectrophotometry measurement of luminescence using 100 µL caspase solution from the Caspase-Glo 3/7, 8, and 9 Assay kits (Promega, Mannheim, Germany) with an Infinite M2000 ProTM plate reader (Tecan).

The subject of data set [8] is caspase 8 in CCRF-CEM cells. As to the kind of experiment: Caspase-Glo 8 assay. It is filed as cell-based, human. The following applies: 6 h, versus untreated cells. The method, then: as §1
In data set [9] the test system is caspases 3/7 in CCRF-CEM cells. As to the kind of experiment: Caspase-Glo 3/7 assay. The following applies: 6 h, versus untreated cells. Type of data set: cell-based, human. The method, then:
as §1

Data set [10] relates to reactive oxygen species (ROS) production in CCRF-CEM cells. As to the kind of experiment: ROS production, H2DCFH-DA staining and flow cytometry. Type of data set: cell-based, human. Particulars: 24 h. The method, then: (§2) The treated cells (1 mL; 1 × 10^6 cells) were incubated for 24 h under the standard cell culture condition. Cells were further stained for 30 min with 10 µL of staining solution ([…] or H2DCFH-DA solution for ROS evaluation) according to the manufacturer’s protocol. Using the LSRFortessa FACS analyzer (Becton–Dickinson, Heidelberg, Germany), the amount of 1 × 10^4 cells was further measured as described earlier.
For orientation: A flow cytometer gives signals particle by particle.

The subject of data set [11] is CCRF-CEM cells. The data set is described as follows: Apoptosis, annexin V/PI staining and flow cytometry. Type of data set: cell-based, human. The following applies: 24 h, non-treated cells 0.4%. The method, then:
The concentration of samples used and CCRF-CEM cells were those as reported above under the standard cell culture conditions. To detect the apoptotic cells, the fluorescein isothiocyanate (FITC)-conjugated annexin V/PI assay kit (eBioscience™ Annexin V; Invitrogen, San Diego, USA) was applied to treated cells after 24 h incubation followed by the measurements with BD Accury C6 Flow Cytometer (BD Biosciences). The assays were performed separately three times and in triplicate.

Data set [12] relates to mitochondrial membrane potential (MMP) of CCRF-CEM cells. The data set is described as follows: MMP analysis, JC-1 staining and flow cytometry. Type of data set: cell-based, human. The following applies: 24 h. As for the experimental part: as §2
The subject of a further data set is MCF-7 cells. The arrangement: method as in PMID 22213398. Particulars: cited from earlier work.
Data set [13] deals with human hepatocellular carcinoma HuH7 cells. The following applies: cited from earlier work.
In data set [14] the test system is cancer cell lines tested in the current work. Set-up: method as in PMID 30703492. The following applies: cited from earlier work.

As to `O=c1c(O)c(-c2ccc(O)c(O)c2)oc2cc(O)cc(O)c12` [Compound 4, quercetin], the IC50 (usually the point on the concentration scale where inhibition reaches its midpoint) in data set [1] was greater than 50 µM; with U87MG.ΔEGFR cells it was greater than 50 µM; in the data set on normal AML12 hepatocytes, greater than 50 µM; in data set [2], 42.3 ± 3.29 µM; in the data set with HCT116 p53^−/− cells, greater than 50 µM; in the data set on CCRF-CEM leukemia cells, 27.3 ± 3.12 µM. For the same compound, the IC50 is 27 µM in the data set on CCRF-CEM leukemia cells (Homo sapiens); 25 µM in the data set on CCRF-CEM cells [4]; greater than 50 µM with U87MG glioblastoma cells; greater than 50 µM in [5]; 101 µM with CEM/ADR5000 cells; greater than 50 µM in the data set with MDA-MB-231-BCRP cells. Moreover, the IC50 in data set [6] was greater than 50 µM. Besides, the “Cytotoxic activity in the panel” value in data set [3] is given as “selectively active”. Moreover, the Degree of resistance with MDA-MB-231-BCRP cells is greater than 1.18; in data set [6] it was greater than 1.83.
As to `COc1c(-c2ccc(O)cc2)oc2c(C)c(O)c(C)c(O)c2c1=O` [Compound 8, 6,8-C-dimethylkaempferol-3-methyl ether], the melting point (commonly the temperature, or range, at which the solid turns liquid) fell in the range of 250 to 253 °C. In data set [1], this compound registered an IC50 of 9.59 ± 0.84 µM. The compound also returned an IC50 in the data set on U87MG.ΔEGFR cells of 15.4 ± 0.64 µM. Also, in the data set on U87MG.ΔEGFR cells (IC50 U87MG.ΔEGFR versus U87MG), the Degree of resistance worked out at 1.92. Besides, the “Increase of caspase 9 activity” value in [7] is 4.22 fold. The “Increase of caspase 8 activity” value in data set [8] was determined as 3.63 fold. Moreover, the “Increase of caspases 3/7 activity” value in [9] is on record as 4.41 fold. Further, in data set [10], the “Effect on ROS production” value is recorded as “enhanced higher ROS production”. Moreover, the ROS level in data set [10] (2 × IC50, untreated cells 0.6%) came out at 24.50%. Further, the IC50 in the data set with normal AML12 hepatocytes was greater than 50 µM. In data set [2], this compound gave an IC50 of 2.34 ± 0.31 µM. Further, the “Early apoptosis, annexin V (+)/PI (-) cells, highest proportion” value with CCRF-CEM cells [11] was no more than 67.3%. The compound also gave an IC50 in the data set on HCT116 p53^−/− cells of 3.41 ± 0.35 µM. In the data set on HCT116 p53^−/− cells (IC50 HCT116 p53^−/− versus HCT116 p53^+/+), this compound yielded a Degree of resistance of 0.36. This compound also had a half-inhibitory concentration (IC50) with CCRF-CEM leukemia cells (Homo sapiens) of 3.03 ± 0.37 µM. The compound further had an IC50 in the data set with U87MG glioblastoma cells of 8.01 ± 0.84 µM. The IC50 in data set [5] came out at 19.4 ± 2.07 µM. In addition, in data set [12], the “Effect on the integrity of the MMP” value is “strongly altered the integrity of the MMP”. The “Q1, cells with undamaged (intact) MMP” value in data set [12] (2 × IC50, untreated control 92.6%) is 23.0%. In the data set on MDA-MB-231-BCRP cells, the IC50 stood at 8.26 ± 0.66 µM and the Degree of resistance came out at 3.53. In [6], this compound displayed an IC50 of 2.42 ± 0.3 µM and a Degree of resistance of 0.80.
For `C[C@H]1[C@H](C)CC[C@]2(C(=O)O)CC[C@]3(C)C(=CC[C@@H]4[C@@]5(C)CC[C@H](O)C(C)(C)[C@@H]5CC[C@]43C)[C@H]12` [Compound 9, ursolic acid], the IC50 in the data set on MCF-7 cells (MCF-7, converted from μg/mL, read-out: IC50) is 15.6 µM; in the data set with MCF-7 cells (MCF-7) it was 7.1 µg/mL; in data set [13], 75 µM.
On to `CCC(CCC(C)C1CCC2C3CC=C4CC(OC5OC(CO)C(O)C(O)C5O)CCC4(C)C3CCC12C)C(C)C` [Compound 10, 3-O-β-D-glucopyranoside of β-sitosterol], for which the IC50 in data set [1] is greater than 50 µM; with U87MG.ΔEGFR cells, greater than 50 µM; in the data set on normal AML12 hepatocytes, greater than 50 µM; in data set [2], greater than 50 µM; in the data set with HCT116 p53^−/− cells, greater than 50 µM; in data set [14], greater than 100 µM. Besides, the IC50 is 44.3 ± 3.91 µM in the data set with CCRF-CEM leukemia cells (Homo sapiens); greater than 50 µM with U87MG glioblastoma cells; greater than 50 µM in [5]; greater than 50 µM with MDA-MB-231-BCRP cells; greater than 50 µM in data set [6]. Moreover, the “Cytotoxic activity in the panel” value in [3] is given as “selectively active”. The compound also displayed a Degree of resistance in data set [6] greater than 1.13.
